Experiment [1] deals with Wnt reporter (TCF/LEF1 promoter). In words: HEK STF293 Wnt reporter (TOPFlash) luciferase assay, Steady Glo normalised to Cell Titer. In kind it is cell-based, human. The method in brief:
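HEK STF293 cells carrying a TCF/LEF1-driven firefly luciferase were stimulated with Wnt3a-conditioned media (1:1) and compound at final 100 μM to 1 nM. Next day, lysates were read by Steady Glo luminescence. EC50 was derived from Steady Glo divided by Cell Titer to normalize for cell number.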

The test system of experiment [2] is Wnt-dependent HCT116 cell line. Nature of the experiment: Viability assay using Wnt-dependent HCT116 cell line (Cell Titer Glo). It is filed as cell-based. The method in brief: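 HCT116 cells at 2,500 cells/well were treated on day 2 with DMSO-diluted compounds further diluted 500-fold in medium, giving a final 0.1% DMSO. Viability was read on day 5 by Cell Titer Glo luminescence.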

[3] abbreviates: Homo sapiens, STF/293, read-out: TOPFlash IC50 category.
The mark [4] stands for this setting: Homo sapiens, HCT-116, read-out: Viability IC50 category.
Setting [5] is: Homo sapiens, STF/293, Examples for Formulae (I), (II), and (III), HEK STF293 cells, Wnt3a-conditioned media, read-out: TOPFlash IC50 category.
Where [6] appears, read: Homo sapiens, HCT-116, Examples for Formulae (I), (II), and (III), HCT116 cells, read-out: Viability IC50 category.
Where [7] appears, read: Homo sapiens, STF/293, Examples for Formulae (VIII), (IX), and (X), HEK STF293 cells, Wnt3a-conditioned media, read-out: TOPFlash IC50 category.
[8] abbreviates: Homo sapiens, HCT-116, Examples for Formulae (VIII), (IX), and (X), HCT116 cells, read-out: Viability IC50 category.
Setting [9] is: Homo sapiens, STF/293, Examples for Formulae (IV), (V), (VI), and (VII), HEK STF293 cells, Wnt3a-conditioned media, read-out: TOPFlash IC50 category.
Setting [10] is: Homo sapiens, HCT-116, Examples for Formulae (IV), (V), (VI), and (VII), HCT116 cells, read-out: Viability IC50 category.
Where [11] appears, read: Examples for Formulae (IV), (V), (VI), and (VII), HEK STF293 cells, Wnt3a-conditioned media, read-out: TOPFlash IC50 category.
Where [12] appears, read: Examples for Formulae (IV), (V), (VI), and (VII), HCT116 cells, read-out: Viability IC50 category.

This note sets out measurements from patent US20250257061A1, “COMPOSITIONS AND METHODS FOR TREATING CANCER AND REDUCING WNT MEDIATED EFFECTS” (StemSynergy Therapeutics, Inc., priority 2024, published 2025).

Where two headings read alike, the source gives them in different places.

The term IC50 denotes the point on the concentration scale where inhibition reaches its midpoint.

On to `COc1ncccc1-c1noc(C)c1C(=O)Nc1nc(-c2ccccn2)cs1` [Example 22], for which the half-maximal inhibitory concentration (IC50) in experiment [1] (setting [3]) and in experiment [2] (setting [4]) was 200 to 500 nM throughout.

On to `Cn1nc(C(=O)Nc2nc(-c3ccccn3)cs2)c(-c2ccc(F)cc2)n1` [Example 19], for which the IC50 in experiment [1] (setting [5]) and in experiment [2] (setting [6]) was 200 to 500 nM throughout.

Regarding `O=C(Nc1nc(-c2ccccn2)cs1)c1ccc(=O)n(Cc2ccc(C(F)(F)F)cc2)c1` [Example 7], the IC50 in experiment [1] (setting [7]) and in experiment [2] (setting [8]) was 200 to 500 nM each time.

Consider `O=C(Nc1nc(-c2ccccn2)cs1)c1ccc(=O)n(-c2ccccc2F)c1` [Example 3], for which the IC50 in experiment [1] (setting [7]) lay in the range of 200 to 500 nM; in experiment [2] (setting [8]), 500 to 1000 nM.

Consider `Cc1onc(-c2ccc(Cl)cc2F)c1C(=O)Nc1nc(-c2ccccn2)cs1` [Example 16], for which the IC50 in experiment [1] (setting [9]) and in experiment [2] (setting [10]) was 200 to 500 nM each time.

For the molecule `O=C(Nc1nc(-c2ccccn2)cs1)c1ccn(Cc2ccc(F)cc2)c(=O)c1` [Example 9], the IC50 in experiment [1] (setting [7]) and in experiment [2] (setting [8]) was 1000 to 10000 nM in each case.

Regarding `Cc1onc(-c2ccc(F)cc2)c1C(=O)Nc1nc(-c2ccccn2)cs1` [Example 4], the IC50 in experiment [1] (setting [9]) was below 200 nM; in experiment [2] (setting [10]), 200 to 500 nM.

For `Cc1noc(-c2ccccc2)c1C(=O)Nc1nc(-c2ccccn2)cs1` [Example 3], the IC50 in experiment [1] (setting [9]) and in experiment [2] (setting [10]) was 200 to 500 nM each time.

Consider `Cc1onc(-c2ccc(C(F)(F)F)cc2)c1C(=O)Nc1nc(-c2ccccn2)cs1` [Example 24], for which the IC50 in experiment [1] (setting [3]) and in experiment [2] (setting [4]) was below 200 nM in each case.

As to `Cc1nn(-c2ccc(F)cc2F)c(C)c1C(=O)Nc1nc(-c2ccccn2)cs1` [Example 8], the half-maximal inhibitory concentration (IC50) in experiment [1] (setting [5]) and in experiment [2] (setting [6]) was 500 to 1000 nM in each case.

On to `O=C(Nc1nc(-c2ccccn2)cs1)c1c(C(F)(F)F)nn(-c2ccccc2)c1C(F)(F)F` [Example 17], for which the IC50 in experiment [1] (setting [5]) and in experiment [2] (setting [6]) was 1000 to 10000 nM in each case.

With `COCc1nc(-c2ccc(F)cc2)c(C(=O)Nc2nc(-c3ccccn3)cs2)o1` [Example 69], the IC50 in experiment [1] (setting [9]) and in experiment [2] (setting [10]) was 200 to 500 nM each time.

Turning to `Cc1nc(N(C)S(=O)(=O)c2ccccc2Cl)oc1C(=O)Nc1nc(-c2ccccn2)cs1` [Example 49], the IC50 lay in the range of 200 to 500 nM in experiment [1] (setting [9]) and 500 to 1000 nM in experiment [2] (setting [10]).

As to `Cc1nn(Cc2ccc(C(F)(F)F)cc2)c(C)c1C(=O)Nc1nc(-c2ccccn2)cs1` [Example 16], the IC50 in experiment [1] (setting [5]) and in experiment [2] (setting [6]) was 500 to 1000 nM throughout.

Regarding `O=C(Nc1nc(-c2ccccn2)cs1)c1oc(CO)nc1-c1ccc(F)cc1` [Example 70, 4-(4-fluorophenyl)-2-(hydroxymethyl)-N-(4-(pyridin-2-yl)thiazol-2-yl)oxazole-5-carboxamide], the IC50 in experiment [1] (setting [3]) lay within 500 to 1000 nM; in experiment [2] (setting [4]), 200 to 500 nM.

On to `O=C(Nc1nc(-c2ccccn2)cs1)c1ccn(Cc2ccc(C(F)(F)F)cc2)c(=O)c1` [Example 10], for which the IC50 in experiment [1] (setting [7]) and in experiment [2] (setting [8]) was 500 to 1000 nM in each case.

For `CS(=O)(=O)c1ccc(F)cc1-c1ncoc1C(=O)Nc1nc(-c2ccccn2)cs1` [Example 47], the figures for the IC50 in experiment [1] (setting [9]) and in experiment [2] (setting [10]) were 500 to 1000 nM and 200 to 500 nM, respectively.

For `CN(C(=O)c1ccc(F)cc1)c1nc(-c2ccc(F)cc2)c(C(=O)Nc2nc(-c3ccccn3)cs2)o1` [Example 76], the half-maximal inhibitory concentration (IC50) in experiment [1] (setting [9]) and in experiment [2] (setting [10]) was below 200 nM each time.

Consider `Cc1nc(-c2ccccc2F)c(C(=O)Nc2nc(-c3ccccn3)cs2)o1` [Example 10], for which the IC50 is below 200 nM in experiment [1] (setting [9]) and 200 to 500 nM in experiment [2] (setting [10]).

For the molecule `Cc1onc(-c2ccccc2)c1C(=O)Nc1nc(-c2ccccn2)cs1` [Example 27], the IC50 in experiment [1] (setting [3]) and in experiment [2] (setting [4]) was 200 to 500 nM throughout.

Regarding `CN(C(=O)c1ccc(C(F)(F)F)cc1)c1ncc(C(=O)Nc2nc(-c3ccccn3)cs2)o1` [Example 35], the figures for the IC50 in experiment [1] (setting [11]) and in experiment [2] (setting [12]) were 500 to 1000 nM and 1000 to 10000 nM, respectively.

Consider `CN1CCN(c2cccc(-c3ncoc3C(=O)Nc3nc(-c4ccccn4)cs3)c2)CC1` [Example 45], for which the IC50 in experiment [1] (setting [11]) and in experiment [2] (setting [12]) was 1000 to 10000 nM in each case.

With `Cc1nc(N(C)S(=O)(=O)c2ccc(Cl)cc2)oc1C(=O)Nc1nc(-c2ccccn2)cs1` [Example 52], the IC50 in experiment [1] (setting [9]) and in experiment [2] (setting [10]) was 500 to 1000 nM throughout.

For the molecule `CN(C(=O)c1ccc(Cl)cc1)c1ncc(C(=O)Nc2nc(-c3ccccn3)cs2)o1` [Example 34], the IC50 in experiment [1] (setting [11]) and in experiment [2] (setting [12]) was 1000 to 10000 nM in each case.

Regarding `Cc1nn(Cc2ccccc2)c(C)c1C(=O)Nc1nc(-c2ccccn2)cs1` [Example 4], the IC50 was in the range of 500 to 1000 nM in experiment [1] (setting [5]) and 1000 to 10000 nM in experiment [2] (setting [6]).

On to `CC(C)(C)c1nc(-c2ccc(F)cc2)c(C(=O)Nc2nc(-c3ccccn3)cs2)o1` [Example 23], for which the IC50 in experiment [1] (setting [3]) and in experiment [2] (setting [4]) was 200 to 500 nM each time.

As to `Cc1nn(-c2ccccc2Cl)c(C(F)F)c1C(=O)Nc1nc(-c2ccccn2)cs1` [Example 12], the IC50 in experiment [1] (setting [5]) lay within 200 to 500 nM; in experiment [2] (setting [6]), 500 to 1000 nM.

`O=C(Nc1nc(-c2ccccn2)cs1)c1ccc(=O)n(Cc2ccccc2Cl)c1` [Example 5]: the IC50 in experiment [1] (setting [7]) and in experiment [2] (setting [8]) was 200 to 500 nM throughout.

As for `Cc1nc(-c2ccc(-c3nnc(C(F)(F)F)o3)cc2)c(C(=O)Nc2nc(-c3ccccn3)cs2)o1` [Example 66], the IC50 in experiment [1] (setting [11]) and in experiment [2] (setting [12]) was below 200 nM throughout.

As to `CS(=O)(=O)c1cccc(-c2ncoc2C(=O)Nc2nc(-c3ccccn3)cs2)c1` [Example 48], the IC50 fell in the range of 500 to 1000 nM in experiment [1] (setting [11]) and 200 to 500 nM in experiment [2] (setting [12]).
